From patent US6130220A, “Sulfamide-metalloprotease inhibitors” (Syntex (USA) Inc., priority 1999, dated 2000) come the findings set out here.

Like-named read-outs stand apart in the source and are kept apart here. Some results are limits rather than exact numbers.

The test system of test [1] is TNF-α release from Human Monomac 6 cells. In words: Inhibition of TNF release in vitro, Monomac 6 cells, LPS/PMA. The following applies: 2 h; for inhibition at 10 µM: MONO-MAC-6, 10 μM, read-out: TNF-α % inhibition, Conc. 10 μM. Type of test: cell-based. The protocol: The activity of compounds of this invention in inhibiting the TNF release was determined, using the a minor modification of the method described in Pradines-Figueres, A. and Raetz, C. R. H., J. Biol. Chem., 267 (32), 23261, (1992).
Human Monomac 6 cells (Ziegler-Heitbrock, H. W. L., et al., Int. J. Cancer, 41, 456, (1988)) were cultured at 37° C. in RPMI 1640 medium containing 10% fetal calf serum to a density of 1×10^5 cells/ml. 0.23 ml of these cells were placed in each well of a tissue culture plate and the cells were incubated for 15 min. The test compounds were dissolved in above mentioned medium and added and the incubation was continued for an additional 15 min. 10 μl of an lipopolysaccharide/phorbol-12-myristate-13-acetate (LPS/PMA) mixture was added such that the final concentration of lipopolysaccharide was 10 ng/ml and the final concentration of phorbol-12-myristate-13-acetate was 30 ng/ml. The cells were incubated for 2 h after which the plate was centrifuged and the medium was removed and analyzed for TNF content. The analysis was performed using a TNF Quantikine® Inmunoassay (R & D Systems, Minneapolis, Minn. 55413) by following the manufacturer's protocol.
The TNF-α inhibitory activity of test materials, i.e., the measure of the TNF-α content in the test group relative to the vehicle treated group (control group) was: […]

Test [2] has as its system collagen matrix of bovine nasal cartilage plugs. The test can be described thus: Cartilage plug degradation in vivo (cartilage plug implant assay). The following applies: female Lewis rats, implanted bovine nasal cartilage plugs, hydroxyproline content vs vehicle, 8 or 9 days.
For test [3], the target named is Collagenase-III. In words: MMP enzymatic assay, hydrolysis of MCA-Pro-Leu-Gly-Leu-DPA-Ala-Arg-NH2, Collagenase-III. The following applies: 37° C., pH 7.5, 2.5% DMSO. Type of test: biochemical. The protocol: The propeptide and catalytic domain portion of human collagenase-3 was expressed in E. Coli as an N-terminal fusion protein with ubiquitin. After purification, the catalytic domain was released by treatment with 1 mM APMA for 1 hour at 37° C., and then purified by zinc chelate chromatography.
Rat collagenase-3 was purified in active form from the culture media of uterine smooth muscle cells as described in Roswit, W. T. et al., Arch. Biochem. Biophys., 225, 285-295 (1983).
The matrix metalloprotease inhibitory activity of compounds of this invention in vitro was determined based on the hydrolysis of MCA-Pro-Leu-Gly-Leu-DPA-Ala-Arg-NH2 (Bachem, Inc.) at 37° C. as described in Knight, C. G., et al., FEBS Lett., 296, 263-266 (1992).
The matrix metalloprotease enzyme was diluted with assay buffer (50 mM Tricine pH 7.5, 200 mM NaCl, 10 mM CaCl2, and 0.005% Brij-35) containing 10 μmole of above substrate dissolved in DMSO. Compounds of the invention dissolved in DMSO or only DMSO (control samples) were added such that the final DMSO concentration in all assays was 2.5%. The fluorescence changes were monitored with a Perkin-Elmer LS-50B flourimeter using an excitation wavelength of 328 nm and an emission wavelength of 393 nm.

Test [4] relates to collagen matrix of cartilage explants. The test can be described thus: Degradation of cartilage plug in vitro (hydroxyproline release). Type of test: cell-based. Particulars: bovine knee cartilage explants, IL-1-α 20 ng/ml, compounds at 10 to 300 nm, 21 days, hydroxyproline content vs control. Here is the method:
The ability of the compounds of this invention to inhibit the degradation of the collagen matrix (as judged by release of hydroxyproline) was determined by the cartilage plug degradation assay in vitro by following a slight modification of the method described in Spirito, S., Doughty, E., et al., "Metalloproteinase inhibitors halt collagen breakdown in IL-1 induced bovine nasal cartilage cultures" Inflamm. Res., 44, Supp. 2: S131-S132, (1995).
Cartilage explants prepared from freshly sacrificed bovine knee joints were added to the culture medium (Dubelco's modified eagle medium, Gibco #21063-001, Gibco BRL Products, Gaithersburg, Md.), without phenol red, but with HEPES, and L-glutamine and fungizone 2.5 μglml, gentamicin 50 μg/ml, penicillin 100 U/ml, and streptomycin 100 μg/ml). The cultures were stimulated with IL-1-α at a final concentration of 20 ng/ml. Compounds of Formula (I), were added at concentrations between 10 and 300 nm in DMSO. The control samples contained only IL-1-α. The cultures were incubated at 37° C. in an atmosphere of air with 6% CO2 for 21 days during which time the medium was changed twice/week. The cartilage plugs were removed, hydrolyzed and the hydroxyproline content was determined. The MMP inhibitory activity of test materials is the measure of the hydroxyproline content in the test group relative to the vehicle treated group (control group).

In test [5] the target is T1, Collagenase-I (Homo sapiens, UniProt P03956).
T1 construct: the collagenase-1 catalytic domain was released by treatment with 1 mM of aninophenylmercuric acetate; ubiquitin (cleaved yes); made in house; host or cells: E. coli
T1 sequence (P03956 100-269 limits assumed): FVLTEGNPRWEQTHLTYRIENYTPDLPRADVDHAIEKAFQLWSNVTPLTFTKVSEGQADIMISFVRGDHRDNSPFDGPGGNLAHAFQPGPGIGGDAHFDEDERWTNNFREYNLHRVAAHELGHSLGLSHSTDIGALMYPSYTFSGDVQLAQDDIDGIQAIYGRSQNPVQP
In words: MMP enzymatic assay, hydrolysis of MCA-Pro-Leu-Gly-Leu-DPA-Ala-Arg-NH2, Collagenase-I. Type of test: biochemical.

The test system of test [6] is TNF-α. In words: Inhibition of LPS induced TNF-α production in mice in vivo. Particulars: s.c. compound, LPS 50 μg/mouse i.p. 1 h later, blood after 1.5 h. The protocol:
The activity of compounds of this invention in inhibiting the TNF-α release was determined, using a minor modification of the methods described in Zanetti, G.; Heumann, D., et. al., "Cytokine production after intravenous or peritoneal Gram-negative bacterial challenge in mice" J. Immunol., 148, 1890, (1992) and Sekut, L., Menius, J. A., et. al., "Evaluation if the significance of elevated levels of systemic and localized tumor necrosis factor in different animal models of inflammation" J. Lab. Clin. Med., 124, 813, (1994).
Female Balbic mice were anesthetized and injected subcutaneously with the test compounds dissolved in CMC vehicle or hydroxypropylmethyl cellulose based vehicle. Control animals received only the vehicle. After 1 h, LPS (50 μg/mouse, Sigma #13129, Sigma Chemical Co., St. Louis, Mo.) was injected intraperitoneally. After 1.5 h, blood was collected from the retro-rbital plexus region of the animals in a miicrotainer serum separator tube (Becton Dickinson, Cat. No. #5960, Becton Dickinson & Co., Franklin Lakes, N.J.). The sera was separated and the amount of TNF-α was determined using the EM-TNFA® kit (Endogen, Woburn, Mass.) by following the manufacturer's protocol.

Setting [7] is: 37° C., pH 7.5, 2.5% DMSO; read-out: Collagenase-I IC50.

For `CC(C)[C@@H](NS(=O)(=O)N1CCN(c2ccc(Cl)cn2)CC1)C(=O)NO` [compound 50, N-hydroxy-2-(R)-{[4-(5-chloropyridin-2-yl)piperazine-1-sulfonyl]amino}-3-methylbutyramide], in test [1], the inhibition (usually the share of the control response that was lost under treatment) at 10 µM was less than 15%. Also, the “% protection” value in test [2] stood at 70%; in test [4], 71%. For the same molecule, the IC50 – broadly, the concentration needed to halve the response being measured – in test [3] was 1.3 nM.
Regarding `CC(C)[C@@H](NS(=O)(=O)N1CCC(Oc2ccc(Cl)cc2)CC1)C(=O)NO` [compound 59, N-hydroxy-2-(R)-{[4-(4-chlorophenoxy)piperidine-1-sulfonyl]amino}-3-methylbutyramide], the “% protection” value is on record as 58% in test [2] and 54% in test [4]. Also, the IC50 in test [3] worked out at 0.18 nM.
In the case of `O=C(NO)[C@H](CSc1ccccc1)NS(=O)(=O)N1CCN(c2ccc(Cl)cn2)CC1` [compound 106, N-hydroxy-2-(R)-{[4-(5-chloropyridin-2-yl)piperazine-1-sulfonyl]amino}-3-(phenylthio)propionamide], the IC50 in test [5] (setting [7]) stood at 223 nM. For the same molecule, the inhibition at 10 µM in test [1] was 41%.
`O=C(NO)[C@H]1CCCCN1S(=O)(=O)N1CCC(c2c[nH]c3c(F)c(F)c(F)c(F)c23)CC1` [compound 299, N-hydroxy-1-[4-(4,5,6,7-tetrafluoroindol-3-yl)piperdine-1-sulfonyl]piperidine-2-(R)-carboxamide] gave a TNF-α % inhibition in test [6] of 52%. For the same molecule, the IC50 is greater than 50000 nM in test [5] (setting [7]) and 410 nM in test [3]. Besides, in test [1] (MONO-MAC-6, 2 μM, read-out: TNF-α % inhibition, Conc. 2 μM), the inhibition at 2 µM was determined as 90%.
Take `CC(C)[C@@H](NS(=O)(=O)N1CCN(c2ccc(OCc3ccncc3)cc2)CC1)C(=O)O` [compound 413, 2-(R)-{[4-(pyridin-4-ylmethyloxyphenyl)piperazine-1-sulfonyl]amino}-3-methylbutyric acid]: in test [5] (read-out: Collagenase-I IC50; 37° C., pH 7.5, 2.5% DMSO), the 50% inhibitory concentration (IC50) came out at 9300 nM.
